From paper PMC9416004, “A Versatile Class of 1,4,4-Trisubstituted Piperidines Block Coronavirus Replication In Vitro” (Pharmaceuticals, 2022)
Where two headings read alike, the source gives them in different places.

Tests used:
[1] = tested on: HCoV-229E; assay: Cytopathic effect (CPE) reduction assay with HCoV-229E in HEL cells; assay type: cell-based, human coronavirus 229E; settings: for EC50: Human coronavirus 229E, 120 h, HCoV-229E-infected HEL cells, five days at 35 °C; for Selectivity Index Microscopy: ratio of MCC to EC50-microscopy; for Selectivity Index Microscopy / Selectivity Index MTS: only values of 10 or higher shown; for Selectivity Index MTS: ratio of CC50 to EC50-MTS
[2] = tested on: human embryonic lung (HEL) fibroblast cells; settings: mock-infected HEL cells; microscopically visible alterations in cell morphology
[3] = in vitro; settings: human
[4] = protection against virus-induced CPE by MTS cell viability assay, read-out: Antiviral EC50 MTS
[5] = protection against virus-induced CPE by microscopic scoring, read-out: Antiviral EC50 Microscopy

Q: Which results are given for `COC(=O)C[C@H](NC(=O)OCc1ccccc1)C(=O)N(C1CC1)C1(C(=O)NCc2ccccc2)CCN(Cc2ccccc2)CC1` [Compound 37]?
A: EC50 [1, 4]: > 100 µM; EC50 [1, 5]: 3 ± 0.1 µM; Cytotoxicity MCC (minimal cytotoxic concentration) [2]: 11 µM; CC50 [3]: 3.6 ± 0.1 µM

Q: For `C[C@H](NC(=O)OC(C)(C)C)C(=O)N(Cc1ccc(F)cc1)C1(C(=O)NCc2ccccc2)CCN(Cc2ccccc2)CC1` [Compound 38], which EC50 [1, 4] is on record?
A: The EC50 was 15 ± 3 µM.

Q: What about the EC50 [1, 5] of the same molecule?
A: The EC50 was 12 ± 1 µM.

Q: And the “Cytotoxicity MCC (minimal cytotoxic concentration)” value (from here on “Cytotoxicity MCC”) [2]?
A: The value was 100 µM.

Q: What about the CC50 [3] of the same molecule?
A: The CC50 was 48 ± 2 µM.

Q: With `CC(C)(C)OC(=O)NCC(=O)N(Cc1ccccc1)C1(C(=O)NCc2ccccc2)CCN(Cc2ccccc2)CC1` [Compound 39] as the molecule, how does the EC50 [1, 4] read?
A: The EC50 was 15 ± 2 µM.

Q: What about the EC50 [1, 5] of the same molecule?
A: The EC50 was 11 µM.

Q: What about the “Cytotoxicity MCC” value [2] of the same molecule?
A: The value was 100 µM.

Q: What about the CC50 [3] of the same molecule?
A: Its CC50 is 49 ± 1 µM.

Q: For `COC(=O)CC[C@H](NC(=O)OC(C)(C)C)C(=O)N(Cc1ccc(F)cc1)C1(C(=O)NCc2ccccc2)CCN(Cc2ccccc2)CC1` [Compound 40], which EC50 [1, 4] is on record?
A: Its EC50 is 11 ± 4 µM.

Q: And the EC50 [1, 5]?
A: Its EC50 is 4.8 ± 1.7 µM.

Q: And the “Selectivity Index Microscopy” value [1]?
A: Its value is 21.

Q: And the “Cytotoxicity MCC” value [2]?
A: The value was 100 µM.

Q: What about the CC50 [3] of the same molecule?
A: Its CC50 is 50 ± 3 µM.

Q: With `CC(C)(C)OC(=O)N[C@@H](CC(N)=O)C(=O)N(Cc1ccc(F)cc1)C1(C(=O)NCc2ccccc2)CCN(Cc2ccccc2)CC1` [Compound 41] as the molecule, how does the EC50 [1, 4] read?
A: Its EC50 is 64 ± 8 µM.

Q: And the EC50 [1, 5]?
A: Its EC50 is 54 ± 4 µM.

Q: What about the “Cytotoxicity MCC” value [2] of the same molecule?
A: Its value is >100 µM.

Q: And the CC50 [3]?
A: Its CC50 is 82 ± 13 µM.

Q: What does the source list for `CC(C)(C)OC(=O)N[C@@H](CC(N)=O)C(=O)N(Cc1ccccc1)C1(C(=O)NCc2ccccc2)CCN(Cc2ccccc2)CC1` [Compound 42]?
A: EC50 [1, 4]: 16 ± 3 µM; EC50 [1, 5]: 13 µM; Cytotoxicity MCC (minimal cytotoxic concentration) [2]: 100 µM; CC50 [3]: 40 ± 6 µM

Q: Which results are given for `CC(C)(C)OC(=O)N[C@@H](CC(=O)O)C(=O)N(Cc1ccc(F)cc1)C1(C(=O)NCc2ccccc2)CCN(Cc2ccccc2)CC1` [Compound 43]?
A: EC50 [1, 4]: > 100 µM; EC50 [1, 5]: > 100 µM; Cytotoxicity MCC (minimal cytotoxic concentration) [2]: >100 µM; CC50 [3]: > 100 µM

Q: What does the source list for `CC(C)(C)OC(=O)N[C@@H](CC(=O)O)C(=O)N(Cc1ccccc1)C1(C(=O)NCc2ccccc2)CCN(Cc2ccccc2)CC1` [Compound 44]?
A: EC50 [1, 4]: > 100 µM; EC50 [1, 5]: > 100 µM; Cytotoxicity MCC (minimal cytotoxic concentration) [2]: >100 µM; CC50 [3]: > 100 µM

Q: For `CC(C)(C)OC(=O)N[C@@H](Cc1c[nH]c2ccccc12)C(=O)N(Cc1ccccc1)C1(C(=O)NCc2ccccc2)CCN(Cc2ccccc2)CC1` [Compound 47], which EC50 [1, 4] is on record?
A: The EC50 was 49 ± 12 µM.

Q: What about the EC50 [1, 5] of the same molecule?
A: The EC50 was 57 ± 17 µM.

Q: And the “Cytotoxicity MCC” value [2]?
A: The value was >100 µM.

Q: And the CC50 [3]?
A: Its CC50 is > 100 µM.

Q: For `CC(C)(C)OC(=O)N[C@@H](Cc1ccc(O)cc1)C(=O)N(Cc1ccccc1)C1(C(=O)NCc2ccccc2)CCN(Cc2ccccc2)CC1` [Compound 48], which EC50 [1, 4] is on record?
A: The EC50 was 9.3 µM.

Q: And the EC50 [1, 5]?
A: The EC50 was 11 ± 1 µM.

Q: What about the “Selectivity Index MTS” value [1] of the same molecule?
A: Its value is >11.

Q: What about the “Cytotoxicity MCC” value [2] of the same molecule?
A: The value was >100 µM.

Q: And the CC50 [3]?
A: The CC50 was > 100 µM.

Q: For `CC(C)(C)OC(=O)N[C@@H](Cc1ccc(F)cc1)C(=O)N(Cc1ccccc1)C1(C(=O)NCc2ccccc2)CCN(Cc2ccccc2)CC1` [Compound 49, Tert-butyl(S)-(1-(benzyl(1-benzyl-4-benzylcarbamoylpiperidin-4-yl)amino)-3-(4-fluorophenyl)-1-oxopropan-2-yl)carbamate], which EC50 [1, 4] is on record?
A: Its EC50 is 8.4 µM.

Q: And the EC50 [1, 5]?
A: Its EC50 is 10 µM.

Q: What about the “Selectivity Index MTS” value [1] of the same molecule?
A: The value was >12.

Q: What about the “Selectivity Index Microscopy” value [1] of the same molecule?
A: Its value is ≥10.

Q: And the “Cytotoxicity MCC” value [2]?
A: Its value is ≥100 µM.

Q: And the CC50 [3]?
A: The CC50 was > 100 µM.

Q: For `CC(C)(C)OC(=O)NC(Cc1ccc(Cl)cc1)C(=O)N(Cc1ccccc1)C1(C(=O)NCc2ccccc2)CCN(Cc2ccccc2)CC1` (stereo not drawn) [Compound 50, Tert-butyl(1-(benzyl(1-benzyl-4-benzylcarbamoylpiperidin-4-yl)amino)-3-(4-chlorophenyl)-1-oxopropan-2-yl)carbamate], which EC50 [1, 4] is on record?
A: Its EC50 is 9.7 ± 0.4 µM.

Q: And the EC50 [1, 5]?
A: Its EC50 is 10 µM.

Q: And the “Selectivity Index MTS” value [1]?
A: The value was ≥10.

Q: And the “Selectivity Index Microscopy” value [1]?
A: The value was ≥10.

Q: What about the “Cytotoxicity MCC” value [2] of the same molecule?
A: Its value is ≥100 µM.

Q: And the CC50 [3]?
A: Its CC50 is > 100 µM.

Q: For `COc1ccc(CC(NC(=O)OC(C)(C)C)C(=O)N(Cc2ccccc2)C2(C(=O)NCc3ccccc3)CCN(Cc3ccccc3)CC2)cc1` (stereo not drawn) [Compound 51, Tert-butyl(1-(benzyl(1-benzyl-4-benzylcarbamoylpiperidin-4-yl)amino)-3-(4-methoxyphenyl)-1-oxopropan-2-yl)carbamate], which EC50 [1, 4] is on record?
A: The EC50 was 4.8 ± 0.4 µM.

Q: And the EC50 [1, 5]?
A: The EC50 was 8.2 ± 1.9 µM.

Q: What about the “Selectivity Index Microscopy” value [1] of the same molecule?
A: The value was ≥12.

Q: What about the “Cytotoxicity MCC” value [2] of the same molecule?
A: The value was ≥100 µM.

Q: What about the CC50 [3] of the same molecule?
A: Its CC50 is > 100 µM.

Q: With `COC(=O)C[C@H](NC(=O)OCc1ccccc1)C(=O)N(Cc1ccccc1)C1(C(=O)NCc2ccccc2)CCN(CCc2ccccc2)CC1` [Compound 53, Methyl(S)-4-(benzyl(4-benzylcarbamoyl-1-phenethylpiperidin-4-yl)amino)-3-benzyloxycarbonylamino-4-oxobutanoate] as the molecule, how does the EC50 [1, 4] read?
A: Its EC50 is 5.8 ± 1.9 µM.

Q: What about the EC50 [1, 5] of the same molecule?
A: Its EC50 is 6.1 ± 2 µM.

Q: And the “Cytotoxicity MCC” value [2]?
A: The value was 40 µM.

Q: And the CC50 [3]?
A: Its CC50 is 24 ± 2 µM.

Q: For `COC(=O)C[C@H](NC(=O)OCc1ccccc1)C(=O)N(Cc1ccccc1)C1(C(=O)NCc2ccccc2)CCN(CCc2ccc(C)cc2)CC1` [Compound 54, Methyl(S)-4-(benzyl(4-benzylcarbamoyl-1-(4-methylphenethyl)piperidin-4-yl)amino)-3-benzyloxycarbonylamino-4-oxobutanoate], which EC50 [1, 4] is on record?
A: The EC50 was 8.4 ± 0.5 µM.

Q: What about the EC50 [1, 5] of the same molecule?
A: The EC50 was 10 µM.

Q: What about the “Cytotoxicity MCC” value [2] of the same molecule?
A: The value was 40 µM.

Q: And the CC50 [3]?
A: Its CC50 is 24 ± 2 µM.

Q: With `COC(=O)C[C@H](NC(=O)OCc1ccccc1)C(=O)N(Cc1ccccc1)C1(C(=O)NCc2ccccc2)CCN(CCc2ccc([N+](=O)[O-])cc2)CC1` [Compound 55, Methyl(S)-4-(benzyl(4-benzylcarbamoyl-1-(4-nitrophenethyl)piperidin-4-yl)amino)-3-benzyloxycarbonylamino-4-oxobutanoate] as the molecule, how does the EC50 [1, 4] read?
A: Its EC50 is 7.7 ± 0.9 µM.

Q: What about the EC50 [1, 5] of the same molecule?
A: The EC50 was 10 µM.

Q: What about the “Selectivity Index MTS” value [1] of the same molecule?
A: Its value is >13.

Q: What about the “Cytotoxicity MCC” value [2] of the same molecule?
A: The value was 60 µM.

Q: What about the CC50 [3] of the same molecule?
A: The CC50 was > 100 µM.

Q: Which EC50 [1, 4] does the source give for `COC(=O)C[C@H](NC(=O)OCc1ccccc1)C(=O)N(Cc1ccccc1)C1(C(=O)NCc2ccccc2)CCN(CCc2ccc(F)cc2)CC1` [Compound 56, Methyl(S)-4-(benzyl(4-benzylcarbamoyl-1-(4-fluorophenethyl)piperidin-4-yl)amino)-3-benzyloxycarbonylamino-4-oxobutanoate] here?
A: Its EC50 is 6 ± 1.9 µM.

Q: What about the EC50 [1, 5] of the same molecule?
A: Its EC50 is 7.6 ± 1.8 µM.

Q: And the “Cytotoxicity MCC” value [2]?
A: Its value is 32 µM.

Q: What about the CC50 [3] of the same molecule?
A: The CC50 was 23 ± 3 µM.

Q: Which EC50 [1, 4] does the source give for `COC(=O)C[C@H](NC(=O)OCc1ccccc1)C(=O)N(CCNc1ccccc1)C1(C(=O)NCc2ccccc2)CCN(Cc2ccccc2)CC1` [Compound 57, Methyl(S)-4-((1-benzyl-4-benzylcarbamoylpiperidin-4-yl)(2-(phenylamino)ethyl)amino)-3-benzyloxycarbonylamino-4-oxobutanoate] here?
A: Its EC50 is 7.1 ± 0.9 µM.

Q: And the EC50 [1, 5]?
A: The EC50 was 10 µM.

Q: And the “Cytotoxicity MCC” value [2]?
A: The value was 40 µM.

Q: And the CC50 [3]?
A: The CC50 was 51 ± 9 µM.

Q: With `COC(=O)C[C@H](NC(=O)OCc1ccccc1)C(=O)N(CCNc1ccccc1)C1(C(=O)NCc2ccccc2)CCN(CCc2ccccc2)CC1` [Compound 58, Methyl(S)-4-((4-benzylcarbamoyl-1-phenethylpiperidin-4-yl)(2-(phenylamino)ethyl)amino)-3-benzyloxycarbonylamino-4-oxobutanoate] as the molecule, how does the EC50 [1, 4] read?
A: Its EC50 is 5.4 ± 1.4 µM.

Q: What about the EC50 [1, 5] of the same molecule?
A: The EC50 was 7.9 ± 1.9 µM.

Q: And the “Cytotoxicity MCC” value [2]?
A: The value was 24 µM.

Q: What about the CC50 [3] of the same molecule?
A: Its CC50 is 20 ± 4 µM.
